In general, MIC refers to the smallest concentration in the dilution series that meets the test's criterion for growth inhibition. Low readings indicate greater potency, high ones weaker potency. The term thermodynamic solubility denotes the concentration in solution at equilibrium with solid. For orientation: Kd means a measure of binding affinity in units of concentration.

In brackets after ≈: the same amount, converted by molar mass. Like-named read-outs stand apart in the source and are kept apart here.

Data set [1] in a line: n-octanol/water distribution coefficient (shake-flask). The conditions noted are these: pH 7.4. The data set is classed as physicochemical. The method, then: The exchange of the coligand (H2O/Cl^–) changes the overall charge of the complex, thus affecting lipophilicity. […] The traditional shake-flask method was used to obtain distribution coefficients of the ligands as well as of the complexes in n-octanol/buffered aqueous solution (20 mM phosphate, pH = 7.4) at different chloride ion concentrations (4, 24, and 100 mM) using UV–vis spectrophotometry (Agilent Cary 8454 diode array spectrophotometer, Santa Clara, CA, USA) for the analysis. The compounds were dissolved in buffered aqueous solutions previously saturated with n-octanol. Then the aqueous and n-octanol phases were gently mixed in different volume ratios (using 1:60 for the ligands, 1:1 for the RhCp* and 1:2 for the RuCym complexes ratios of n-octanol to buffered aqueous solution volume) for 4 h, followed by phase separation. Then the UV–vis spectrum of the aqueous or n-octanol phase was recorded and compared to the reference spectrum. Stock solutions were made in the aqueous phase, and distribution coefficients (DpH) were calculated by the following equation: [drawing 3]

Data set [2] in a line: pKa of in situ prepared complexes by UV–vis titration. It counts as physicochemical. Particulars: 1:1 system, absence of chloride, I = 0.20 M KNO3. An excerpt:
The UV–vis spectra of the complexes prepared in situ were then followed at different pH values in the absence of chloride ions. No spectral changes were observed between pH = 2–6.3 (RuCym) or 7.5 (RhCp*), indicating high solution stability in both cases; however, the changes were significant in the basic pH range (Figure S22). In the case of RuCym complexes, two overlapping processes associated with the deprotonation of the coordinated water molecule and the noncoordinated Npyr/pipH^+ moiety were observed. […] The pKa values determined for these processes are shown in Table 2 and Figure S23 together with the values obtained for complexes formed with the amino acid hybrids HQCl-D-Pro and HQCl-D-hPro (Chart 2) for comparison.[26]
(§1) An Agilent Cary 8454 diode array spectrophotometer was utilized to obtain UV–vis spectra in the wavelength range 190–1100 nm. The path length (l) was 1 or 2 cm in most cases (the actual l is always indicated in the legends of the figures). The concentrations of the ligands and complexes were between 36 and 100 μM. The ligands were titrated in the presence of 10 equiv of EDTA. Individual samples contained 0–37 μM HSA, 0–206 μM MIM, 0–759 μM AHA, or 0–733 μM FHA. Spectra were always background and baseline corrected. The computer program HypSpec[64] was used to obtain stability constants.

The nature of data set [3]: pKa of in situ prepared complexes by 1H NMR titration. The data set is classed as physicochemical. Particulars: 1:1 system, I = 0.20 M KNO3. From the text:
(§2) The results, shown in Table 2, indicate good agreement between the data obtained by the different methods. It should be noted that these processes show overlap in all cases, and therefore, the assignment of the pKa values to the given moieties cannot be made reliably. However, by comparing the spectral changes with those observed for HQ and other simple derivatives,[25] it can be concluded that the lower pKa likely belongs to the deprotonation of the aqua coligand.
(§3) Bruker Avance III HD Ascend 500 Plus instrument (Billerica, MA, USA) was used for NMR studies. ^1H NMR spectroscopic measurements were carried out with a WATERGATE water suppression pulse scheme in the presence of 10% (v/v) D2O in most cases. DSS internal standard was added to samples to obtain reference peaks. ^1H NMR titrations were carried out in the presence of 0.20 M KNO3. The computer program HypSpec[64] was used to obtain equilibrium constants.

Data set [4] in a line: pKa of in situ prepared complexes by pH-potentiometry. The data set is classed as physicochemical. Particulars: I = 0.20 M KNO3.
Source text: as §2
The pH-potentiometric measurements were carried out at 25.0 ± 0.1 °C in water in the pH range between 2.0 and 11.5 and at a constant ionic strength of 0.20 M KNO3. The titrations were performed in a carbonate-free KOH solution (0.20 M). The exact concentrations of the HNO3 and KOH solutions were determined by pH-potentiometric titrations. An Orion 710A pH-meter equipped with a Metrohm combined electrode (type 6.0234.100) and a Metrohm 665 Dosimat buret were used for this purpose. […] The average water ionization constant, pKw, was determined as 13.76 ± 0.01, which is in good agreement with the literature data.[67] The initial volume of the samples was 10.0 mL. […] Samples were degassed by bubbling purified argon through them for about 10 min prior to the measurements, and the inert gas was also passed over the solutions during the titrations. The computer program Hyperquad2013[64] was utilized to establish the stoichiometry of the species and to calculate the equilibrium constants.

Data set [5] in a line: H2O/Cl– coligand exchange by UV–vis titration with chloride ions. The data set is classed as physicochemical. Particulars: RuCym complexes titrated at pH 6.0. The method, then:
When the isolated complexes (1–4) are dissolved in water, their chlorido coligand can be replaced by water, or vice versa in the aqua complexes [M(arene)(HL)(H2O)]^2+, the H2O → Cl^– exchange process can take place in the presence of chloride ions. The chloride ion affinity of the complexes was also investigated by UV–vis spectrophotometry. RhCp* and RuCym complexes were titrated with chloride ions at pH 7.4 and 6.0, respectively. For this experiment, pH values were chosen at which the formation of the mixed hydroxido species is negligible. A representative spectrum series for complex (4) is shown in Figure S27, and the calculated conditional exchange constants (logK’ (H2O/Cl^–)) are given in Table 2 and in Figure S23. […] The complexes of the amino acid hybrids HQCl-D-Pro and HQCl-D-hPro have lower logK’ (H2O/Cl^–) constants most likely due to the repulsive effect of the nearby COO^– group.[26]

In data set [6] the test system is Escherichia coli (ATCC 25922). Put plainly: Antibacterial MIC, E. coli. Particulars: Mueller Hinton Broth, 37 °C, 18 h. It counts as cell-based. As to the method: (§4) Escherichia coli (ATCC 25922) was used as Gram-negative strain and Staphylococcus aureus (ATCC 25923, methicillin-resistant (MRSA) ATCC 43300) strains were applied as Gram-positive bacterial cultures in the experiments. MIC values of the compounds were determined in 96-well plates based on the Clinical and Laboratory Standard Institute guidelines (CLSI guidelines).[76] The stock solutions of the compounds (same as those used for cytotoxicity experiments) were diluted in 100 μL of Mueller Hinton Broth. Then, 10^–4 dilution of an overnight bacterial culture in 100 μL of medium was added to each well, with the exception of the medium control wells.

Data set [7] has as its system Staphylococcus aureus (ATCC 25923). Put plainly: Antibacterial MIC, S. aureus. Particulars: Mueller Hinton Broth, 37 °C, 18 h. It counts as cell-based. The method, then:
as §4

Data set [8] deals with methicillin-resistant S. aureus (MRSA) ATCC 43300. Put plainly: Antibacterial MIC, MRSA. It counts as cell-based, Staphylococcus aureus. Particulars: Mueller Hinton Broth, 37 °C, 18 h. As to the method:
as §4

The target in data set [9] is human serum albumin (HSA), Trp214 / site I (Homo sapiens, UniProt P02768). Put plainly: HSA Trp214 fluorescence quenching.
human serum albumin (HSA), Trp214 / site I, sequence (P02768 25-609): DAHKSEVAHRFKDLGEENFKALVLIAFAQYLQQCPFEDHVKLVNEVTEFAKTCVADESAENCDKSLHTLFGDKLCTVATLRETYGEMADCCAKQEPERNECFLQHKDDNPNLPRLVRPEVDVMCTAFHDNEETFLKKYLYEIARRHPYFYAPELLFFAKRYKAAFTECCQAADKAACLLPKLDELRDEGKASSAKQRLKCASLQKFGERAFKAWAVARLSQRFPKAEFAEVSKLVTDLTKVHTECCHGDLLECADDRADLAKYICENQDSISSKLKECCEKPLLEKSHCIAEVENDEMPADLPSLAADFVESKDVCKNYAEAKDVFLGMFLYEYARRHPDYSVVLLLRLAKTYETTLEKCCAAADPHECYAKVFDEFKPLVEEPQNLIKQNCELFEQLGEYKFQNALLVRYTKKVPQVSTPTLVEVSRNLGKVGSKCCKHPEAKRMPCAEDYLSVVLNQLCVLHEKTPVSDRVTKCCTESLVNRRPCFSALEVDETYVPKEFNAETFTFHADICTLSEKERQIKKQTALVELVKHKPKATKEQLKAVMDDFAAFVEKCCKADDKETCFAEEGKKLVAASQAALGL
Method: (§6) Next, spectrofluorometric measurements were also performed to gain insight into the binding interactions that may occur in the hydrophobic binding sites of HSA. Tryptophan (Trp214) quenching experiments were conducted for the complexes (1–4) (for complex (3) see Figure S31) and their ligands). […] To monitor the binding at site II, site marker displacement experiments were performed using dansylglycine (DG).
(§7) Fluorescence measurements were carried out on a Fluoromax (Horiba Jobin Yvon, Longjumeau, France) spectrofluorometer using a 1 cm × 1 cm quartz cuvette. […] Excitation wavelengths were 295 nm for Trp-214 quenching and 340 nm for the DG displacement studies. The calculated conditional stability constants for HSA–complex species were obtained using the computer program HypSpec.[64] Calculations always were based on data obtained from at least two independent measurements.
For data set [10], the target named is human serum albumin (HSA), site II (Homo sapiens, UniProt P02768). Put plainly: HSA dansylglycine (DG) site marker displacement.
human serum albumin (HSA), site II, sequence (P02768 25-609): as above
Method: as §6, §7
The subject of data set [11] is MES-SA. Put plainly: Cytotoxicity in double coculture, MES-SA mCherry. The conditions noted are these: read-out: IC50 MES-SA; double coculture with MES-SA/Dx5; 144 h; without TQ.
Method: (§8) Therefore, the novel half-sandwich complexes (1–4) and their corresponding ligands were tested against a coculture of MES-SA and MES-SA/Dx5 cells expressing the fluorescent proteins mCherry or eGFP, respectively.[62]
(§9) MES-SA/B1 is a human MDR1-transfected derivative of MES-SA, and MES-SA mCherry, MES-SA/B1 mOrange, and MES-SA/Dx5 eGFP were engineered to stably express the respective fluorescent proteins previously.[62] Cells were kept in culture medium (DMEM) supplemented with 10% fetal bovine serum, 2 mM L-glutamine, 100 units/mL penicillin, and 100 μg/mL streptomycin (Thermo Fisher). One week before use, MES-SA/Dx5 eGFP cells were treated with 0.5 μM doxorubicin to ensure ABCB1/P-gp expression.
(§10) The tested compounds were dissolved in 50% (v/v) DMSO/PBS’ buffer to prepare 5–10 mM stock solutions, which were diluted in complete culture medium. Constitutive expression of the fluorescent proteins allowed multiplexing in cytotoxicity experiments.[62] […] Serial dilutions of the compounds were added 24 h after seeding. To address the effect of P-gp function, TQ was added at a nontoxic concentration (0.4 μM) 15 min before the test compounds. […] IC50 values and standard deviation were calculated from average pIC50 values from at least 3 independent measurements.
Data set [12] has as its system MES-SA/Dx5. Put plainly: Cytotoxicity in double coculture, MES-SA/Dx5 eGFP. Particulars: for SR = IC50 (MES-SA)/IC50 (MES-SA/Dx5): double coculture.
Method: as §8, §9, §10
Data set [13] can be described thus: pKa of the ligands by UV–vis titration. Particulars: for pKa: 0.20 M KNO3, UV–vis, I = 0.20 M KNO3, 10 equiv. EDTA. It counts as physicochemical. The method, then:
(§5) Physico-chemical properties such as aqueous solubility, lipophilicity, and the actual protonation state at a given pH are known to influence the pharmacokinetic behavior of a drug.
as §1

The nature of data set [14]: pKa of the ligands by 1H NMR titration. The data set is classed as physicochemical. The conditions noted are these: 0.20 M KNO3 with 10% (v/v) D2O, I = 0.20 M KNO3, 25.0 °C, read-out: pKa (OH). As to the method: as §5, §3
Data set [15] is described as follows: Thermodynamic aqueous solubility at pH 7.4. The data set is classed as physicochemical. The conditions noted are these: 10 mM HEPES buffer, thermodynamic from solid, pH 7.4 (10 mM HEPES), 25.0 °C, read-out: thermodynamic aqueous solubility S7.4. The method, then: The concentration of the compounds was determined by UV–vis spectrophotometry. For calibration, stock solutions of the compounds were used with known concentrations dissolved in 100% DMSO, 75% DMSO, and 50% (v/v) DMSO/buffered aqueous solutions.

The next data set concerns Colo320. Put plainly: Cytotoxicity, Colo320. It counts as cell-based, human. Particulars: this work. An excerpt: Supplementary Information
(11 pictures or pasted objects on this page, not shown here)

The subject of data set [16] is MES-SA. The conditions noted are these: monoculture, PrestoBlue; ref SI3; cited from earlier work.
The subject of data set [17] is MES-SA/Dx5. The conditions noted are these: monoculture, ref SI3, cited from earlier work.
For a further data set, the system named is A431. Also noted: method as in earlier work. Particulars: monoculture, 72 h, PrestoBlue; ref SI3; cited from earlier work.
A further data set concerns A431-B1. Set-up: method as in earlier work. Particulars: monoculture, ref SI3, cited from earlier work.
[18] abbreviates: pH 7.4, based on the pKa values.

Take [RuCym(HQCl-Pip)Cl]Cl [(4)]: the logD7.4 result in data set [1] (c(Cl–) = 4 mM) is given as “+0.35 ± 0.02”; in data set [1] (c(Cl–) = 24 mM) it was “+0.72 ± 0.02”; in data set [1] (c(Cl–) = 100 mM), “+0.89 ± 0.02”. The “pKa (H2O)” value in data set [2] came out at 8.39 ± 0.10; in data set [3], 8.50 ± 0.02; in data set [4], 8.43 ± 0.08. In addition, the “pKa (Npyr/pipH+)” value in [2] is 10.06 ± 0.05; in [3] it was 10.19 ± 0.02; in data set [4], 10.07 ± 0.07. For the same molecule, in [5], the “logK’ (H2O/Cl–)” value came out at 1.78 ± 0.02. Besides, the MIC in data set [6], in [7] and in [8] was > 100 µM throughout. The “logK’(quenching)” value in [9] (1 μM HSA, λEX = 295 nm (Trp-214), pH 7.4 (PBS’), […], 24 h) worked out at 5.4 ± 0.2. For the same molecule, in data set [10] (cHSA = cDG = 1 μM, λEX = 335 nm (DG), pH 7.4 (PBS’), […], 24 h), the “logK’(DG)” value was 5.3 ± 0.1. In addition, the IC50 with MES-SA [11] worked out at 3.46 µM; in the data set with MES-SA/Dx5 [12] (read-out: IC50 MES-SA/Dx5, double coculture with MES-SA, 144 h, without TQ) it was 1920 nM. Moreover, the “SR = IC50 (MES-SA)/IC50 (MES-SA/Dx5)” value is 0.2 in the data set with MES-SA/Dx5 [12] (+ 0.4 μM tariquidar (TQ)) and 1.8 with MES-SA/Dx5 [12] (without TQ).
Take `Oc1c(CN2CCCC2)cc(Cl)c2cccnc12` [HQCl-pyr, 5-chloro-7-(pyrrolidin-1-ylmethyl)quinolin-8-ol]: the pKa in [13] (read-out: pKa (Npyr/pipH+)) was 11.36 ± 0.1; in data set [13] (read-out: pKa (NqH+)) it was < 2; in [13] (read-out: pKa (OH)), 7.53 ± 0.05; in data set [14], 7.65 ± 0.02. Also, in [13] (setting [18]), the “fraction of H2L+” value stood at 51%. Also, the “fraction of HL” value in [13] (setting [18]) turned out to be 49%. For the same molecule, the logD at 4 h in [1] (n-octanol/buffered aqueous solution, n-octanol/H2O, read-out: log D7.4) stood at 1.83. The solubility (thermodynamic) in data set [15] turned out to be 516 ± 2 µM (≈ 136 µg/mL). Further, the “SR (Colo205 / Colo320)” value with Colo320 is given as 2.0. For the same molecule, the MIC amounted to 50 µM (≈ 13.1 µg/mL) in data set [6] (Escherichia coli, ATCC25922); 50 µM (≈ 13.1 µg/mL) in [7] (Staphylococcus aureus, ATCC25923); 50 µM (≈ 13.1 µg/mL) in [8] (Staphylococcus aureus). Also, the IC50 with MES-SA [16] was 3.46 ± 0.51 µM; with MES-SA/Dx5 [17] (PrestoBlue), 300 ± 60 nM; in the data set on A431, 7.45 ± 0.15 µM; in the data set on A431-B1 (72 h, PrestoBlue), 1970 ± 250 nM. For the same molecule, the entries for the “SR (MES-SA / MES-SA/Dx5)” value with MES-SA/Dx5 [17] (+ 1 µM TQ) and with MES-SA/Dx5 [17] were 1.35 and 11.53, respectively. For the same molecule, the “SR (A431 / A431-B1)” value in the data set on A431-B1 is on record as 3.79. Moreover, the figures for the equilibrium dissociation constant (Kd) in data set [9] and in [10] were 25.1 µM and 12.6 µM, respectively.

The values are drawn from publication PMC11653257, “Organometallic Half-Sandwich Complexes of 8-Hydroxyquinoline-Derived Mannich Bases with Enhanced Solubility: Targeting Multidrug Resistant Cancer” (Inorganic Chemistry, 2024).
